Data from patent US20050159364A1, “Copper antagonist compounds” (priority 2003, published 2005).
Values joined by “and” are separate entries in the source; they are usually repeats but may differ in a detail not shown here. Identical values can stand only once. “Also recorded” adds a separate entry of the source. Counter-ions that a name gives are not always drawn. Like-named read-outs stand apart in the source and are kept apart here. Marks after values point to notes of the source that are not given here.

How the values were obtained:
[1] = system: humans with T2DM or matched controls; conditions: for Mean CU Losses, fecal, Post-Tment: n = 10, oral 2.4 g once daily
Method: Total metal balance studies were performed in a residential metabolic unit. Total fecal outputs were collected daily for 12 days, freeze dried, and analyzed by ICP-MS for content of Cu, Fe, Zn, Ca, Mg, Mn, Cr, […] and Se.

[2] = system: male humans with T2DM and matched non-diabetic controls
From the text: Methods were as follows. Human studies were approved by institutional ethics and regulatory committees. We measured urinary metal excretion in human males with T2DM or matched non-diabetic controls, baseline information on which is shown in Table 9, in a randomized, double blind, placebo-controlled trial. Males with uncomplicated T2DM (Table 9) underwent 12-d elemental balance studies in a fully residential metabolic unit. All foods and beverages were provided. Total daily intake (method of double diets) and excretion (urinary and fecal) of trace elements (Ca, Mg, Zn, Fe, Cu, Mn, Mo, Cr and Se) were determined (ICP MS).

[3] = system: STZ-treated and non-STZ-treated rats; conditions: highest dose 100 mg/kg i.v., 2 min following administration
Method: (§1) Following surgery and a 20 min stabilization period, the experimental protocol was started. […] Control animals received an equivalent volume of saline. Urine was collected in 15 min aliquots throughout the experiment in pre-weighed polyethylene epindorf tubes. At the end of the experiment a terminal blood sample was taken by cardiac puncture and the separated serum stored at −80° C. until future analysis. Hearts were removed through a rapid mid-sternal thoracotomy and processed as described below.
Mean arterial pressure (MAP), heart rate (HR, derived from the MAP waveform) oxygen saturation (Nonin 8600V Pulse Oximeter, Nonin Medical Inc., Minnesota, USA) and core body temperature, were all continuously monitored throughout the experiment using a PowerLab/16s data acquisition module (AD Instruments, Australia).
Following surgery and a 20 min stabilization period, the experimental protocol was started. […] Urine was collected throughout the experiment in 15 min aliquots.

[4] = 0.9% saline, 0.67-670 mg/ml, four months at 4° C.
Method: The concentrations of the stock formulations were:0.67 mg/ml, 6.7 mg/ml, 67 mg/ml, and 670 mg/ml. The formulation was then administered to the rats in doses of 0.1 mg/kg, 1 mg/kg, 10 mg/kg, and 100 mg/kg to the animals respectively.

[5] = system: Tg2576 transgenic mice; conditions: oral treatment, nine weeks for clioquinol; cited from earlier work
[6] = system: STZ-treated and non-STZ-treated rats; conditions: for Cu content of heart tissue / Fe content of heart tissue: mean ± SEM
Method: Methods were carried out as follows. Spectrophotometric analysis was conducted as described in Example 2. Cu, Fe and Zn in tissue digests were determined at Hill Laboratories (Hamilton, New Zealand) using either a PE Sciex Elan-6000 or PE Sciex Elan-6100 DRC ICP-MS.
Sample pre-treatment was carried out as follows. Heart:Following removal from the animal, the heart was cleaned of excess tissue, rinsed in buffer to remove excess blood, blotted dry and a wet ventricular weight recorded. Using titanium instruments a segment of left ventricular muscle was dissected and placed in a pre-weighed 5.0 ml polystyrene tube. The sample was freeze-dried overnight to constant weight before 0.45 ml of 69% Aristar grade HNO3 was added. The sample tube was heated in a water bath at 65° C. for 60 minutes. The sample was brought to 4.5 ml with Milli-Q H2O. The resulting solution was diluted 2:1 in order to reduce the HNO3 concentration below the maximum permitted for ICP-MS analysis.

[7] = system: humans with T2DM; assay: 6-month double-blind placebo-controlled oral trientine trial, LV mass by cardiac MRI
From the text: Subjects (30-70 y) who provided written informed consent were eligible for inclusion if they had:T2DM with HbA1c>7%; cardiac ejection fraction (echocardiography)≧45% with evidence of diastolic dysfunction but no regional wall-motion anomalies; no new medications for more than 6 months with no change of β-blocker dose; normal electrocardiogram (sinus rhythm, normal PR Interval, normal T wave and QRS configuration, and isoelectric ST segment); and greater than 90% compliance with single-blinded placebo therapy during a 2-w run-in period. Women were required to be post-menopausal, surgically sterile, or non-lactating and non-pregnant and using adequate contraception.
Before randomization, potentially eligible subjects entered a 4-w single blind run-in phase of two placebo-capsules twice-daily and underwent screening echocardiography, being excluded if regional wall motion abnormalities or impaired LV systolic function (ejection fraction <50%) were detected. In addition, LV diastolic filling was assessed using mitral inflow Doppler (with pre-load reduction) to ensure patients had abnormalities of diastolic filling; no patient with normal mitral filling proceeded to randomisation. […] The double-blind treatment was continued for 6 months in each subject.
At baseline and following 6 months' treatment, LV mass was determined using cardiac MRI, performed in the supine position with the same 1.5 T scanner (Siemens Vision) using a phased array surface coil. Prospectively gated cardiac cine images were acquired in 6 short axis and 3 long axis slices with the use of a segmented k-space pulse sequence (TR 8 ms; TE 5 ms; flip angle 10°; field of view 280-350 mm) with view sharing (11-19 frames.slice^−1). Each slice was obtained during a breath-hold of 15-19 heartbeats. The short axis slices spanned the left ventricle from apex to base with a slice thickness of 8 mm and inter-slice gap of 2-6 mm. The long axis slices were positioned at equal 60° intervals about the long axis of the LV. […] LV-mass and volume were calculated using guide point modeling, which produces precise and accurate estimations of mass and volume. Briefly, a three dimensional mathematical model of the LV was interactively fitted to the epicardial and endocardial boundaries of the LV wall in each slice of the study, simultaneously. Volume and mass were then calculated from the model by numerical integration (mass=wall volume×1.05 g.ml^−1). All measurements were performed by 1 measurer at the end of six months' data collection. Outcome analyses were conducted by intention-to-treat, using a maximum likelihood approach to impute missing at random data within a mixed model, and marginal least-squares adjusted-means were determined. Changes from baseline were compared between treatment-groups in the mixed model with baseline values entered as covariate. Since there were only 2 groups in the main effect and no interaction effect, no post hoc procedures were employed. In additional analysis the influence of clinically important differences between the treatment groups at baseline was considered by adjusting for them as covariates in an additional model. All P values were calculated from 2-tailed tests of statistical significance and a 5% significance level was maintained throughout. The effect of treatment on categorical variables was tested using the procedures of Mantel and Haenzel (SAS v8.01, SAS Institute).

[8] = system: STZ-treated and non-STZ-treated rats; conditions: for Serum Cu: trientine i.v. 0.1-100 mg.kg^−1 hourly, terminal sample; for Serum Fe: trientine i.v.
From the text: All animals were fasted overnight prior to surgery but continued to have ad libitum access to deionized water. […] The femoral artery and vein were cannulated with a solid-state blood pressure transducer (Mikrotip™ 1.4F, Millar Instruments, Texas, USA) and a saline filled PE 50 catheter respectively. The ureters were exposed via a midline abdominal incision, cannulated using polyethylene catheters (external diameter 0.9 mm, internal diameter 0.5 mm) and the wound sutured closed. The trachea was cannulated and the animal ventilated at 70-80 breaths.min^−1 with air supplemented with O2 (Pressure Controlled Ventilator, Kent Scientific, Conn., USA). The respiratory rate and end-tidal pressure (10-15 cmH2O) were adjusted to maintain end-tidal CO2 at 35-40 mmHg (SC-300 CO2 Monitor, Pryon Corporation, Wisconsin, USA). Body temperature was maintained at 37° C. throughout surgery and the experiment by a heating pad. Estimated fluid loss was replaced with intravenous administration of 154 mmol.l^−1 NaCl solution at a rate of 5 ml.kg^−1.h^−1.
as §1
Urine and tissue analysis was carried out as follows. Instrumentation:A Perkin Elmer (PE) Model 3100 Atomic Absorption Spectrophotometer equipped with a PE HGA-600 Graphite Furnace and PE AS-60 Furnace Autosampler was used for Cu and Fe determninations in urine. Deuterium background correction was employed. A Cu or Fe hollow-cathode lamp (Perkin Elmer Corporation) was used and operated at either 10 W (Cu) or 15 W (Fe). The 324.8 nm atomic line was used for Cu and the 248.3 nm atomic line for Fe. The slit width for both Cu and Fe was 0.7 nm. Pyrolytically coated graphite tubes were used for all analyses. The injection volume was 20 μL. A typical graphite furnace temperature program is shown below:
Sample pretreatment was carried out as follows. Urine:Urine was collected in pre-weighed 1.5 ml micro test tubes (eppendorf). After reweighing, the urine specimens were centrifuged and the supernatant diluted 25:1 with 0.02 M 69% Aristar grade HNO3. The sample was stored at 4° C. prior to GF-AAS analysis. If it was necessary to store a sample for a period in excess of 2 weeks, it was frozen and kept at −20° C. Serum:Terminal blood samples were centrifuged and serum treated and stored as per urine until analysis. From the trace metal content of serum from the terminal blood sample and urine collected over the final hour of the experiment, renal clearance was calculated using the following equation: [formula]

[9] = 15 days
Method: One sample of the solution was stored in the dark at 4° C. and 21° C. in the dark and a third sample was stored at 21° C. in daylight.
The Ultraviolet-visible spectrum of the formulation was initially measured at day 0 and then at day 15. 20 μl aliquots of sample solutions were taken at day 15. For each aliquot 960 μl of 50 mM TRIS buffer and 20 μl aliquot of Copper Nitrate standard (100 mM—Orion Research Inc) were added.

[10] = system: STZ-treated and non-STZ-treated rats; assay: Left ventricular histology by LCM and TEM after oral trientine
[11] = system: STZ-treated and normal rats; assay: Isolated working heart function after 7 weeks oral trientine
[12] = system: Male Wistar rats; assay: Effects of streptozotocin (STZ) treatment in rats; assay type: in vivo, rat
From the text: Male Wistar rats (n=28, 303±2.9 g) were divided randomly into STZ-treated and non-treated groups. […] Non-treated animals received an equivalent volume of saline. […] Blood glucose and body weight were measure at day 3 following STZ/saline injection and then weekly throughout the study.

[13] = STZ-treated and non-STZ-treated rats
[14] = STZ-treated rats, oral trientine 7 weeks
[15] = STZ-treated animals n = 14, mean ± SEM

NCCNCCNCCN [trientine]
Mean CU Losses, fecal, Post-Tment ([1]; control): 2.045 mg/day | Mean CU Losses, fecal, Post-Tment ([1]; diabetic): 1.965 mg/day | Effect on fecal outputs of Zn, Fe, Ca, Mg, Mn, Cr, Mb or Se ([1]; oral 2.4 g once daily): Neither diabetes nor trientine had measurable effects | Mean trientine-evoked urinary Cu-excretion ([2]; T2DM, oral 2.4 g once-daily): 5.8 µmol/day | Urinary Cu, diabetic and control groups ([2]; day 7, oral 2.4 g): increased urinary Cu in both groups | Mean trientine-evoked urinary Cu-excretion ([2]; non-diabetic controls, oral 2.4 g once-daily): 4.1 µmol/day | Increase of trientine-evoked urinary Cu-excretion in T2DM compared to non-diabetic controls ([2]; oral 2.4 g once-daily): 40% | Trientine-evoked urinary Fe excretion ([2]; oral 2.4 g once-daily): no corresponding increase | Urinary Cu excretion, trientine-treated T2DM versus trientine-treated non-diabetic controls ([2]; single 2.4-g oral dose, day 7, P<0.05): significantly greater | Maximum decrease of mean arterial pressure (MAP) [3]: 19±4 mmHg and 19+/−4 mmHg | Stability of stock solutions on storage (copper chelation efficacy) [4]: remains active as a copper chelator | Brain Aβ / amyloid deposition [5]: did not inhibit amyloid deposition | Cu content of heart tissue ([6]; STZ-treated rats): 24.7 ± 1.5 μg · g^−1 dry tissue | Fe content of heart tissue ([6]; STZ-treated rats): 186 ± 46 μg · g^−1 dry tissue | Effect on copper content of cardiac tissue ([6]; acute i.v. increasing doses, normal and STZ-treated rats): no significant effect | Cu content of heart tissue ([6]; non-STZ-treated rats): 27.1 ± 1.0 μg · g^−1 dry tissue | Fe content of heart tissue ([6]; non-STZ-treated rats): 235 ± 39 μg · g^−1 dry tissue | Adverse events during 6 months' therapy ([7]; 600 mg twice-daily oral): No significant trientine-related adverse events | Δ diastolic blood pressure ([7]; 6 months − baseline, mean): −3.9 mmHg | Δ systolic blood pressure ([7]; 6 months − baseline, mean): −3.5 mmHg | Δ urinary copper ([7]; 6 months − baseline, mean): -0.83 µmol/L | Δ left ventricular mass/body surface area ([7]; 6 months − baseline, mean, P<0.01 vs. placebo): −5.56** g · m^−2 | Decrease of mean LV mass ([7]; diabetics, 600 mg twice-daily oral, 6 months): 5% | Urine excretion versus saline ([8]; 100 mg.kg^−1 dose, non-STZ-treated rats): increased urine excretion | Total copper excreted over the entire duration of the experiment versus saline controls [8, 13]: significantly increased | Urinary iron excretion versus saline [8, 13]: not increased | Serum Cu ([8]; STZ-treated rats, n = 6): 7.56 ± 0.06 μg · μl^−1 × 10^−4 | Serum Fe ([8]; STZ-treated rats, n = 6): 35.7 ± 7.98 μg · μl^−1 × 10^−4 | Urinary Cu excretion versus equivalent volume of saline ([8]; all doses 0.1, 1.0, 10, 100 mg.kg^−1 i.v., STZ-treated and non-STZ-treated rats): excreted more Cu | Urinary copper excretion per gram of bodyweight, STZ-treated versus non-STZ-treated ([8]; following trientine administration): greater per gram of bodyweight in STZ-treated | Serum Cu ([8]; non-STZ-treated rats, n = 4): 7.11 ± 0.41 μg · μl^−1 × 10^−4 | Serum Fe ([8]; non-STZ-treated rats, n = 4): 33.6 ± 1.62 μg · μl^−1 × 10^−4 | Change in ability to chelate copper on storage ([9]; 100 mM in deionized water, 4° C. dark, 21° C. dark, 21° C. daylight): no detectable change | Effect of room light on copper chelation ([9]; 100 mM solution, 21° C., daylight): no detectable detrimental effect | Myocardium of trientine-treated non-STZ-treated rats [10]: appeared normal | Myocardial (LV) histology in STZ-treated rats ([10]; 7 weeks oral trientine): improved; also recorded: substantive recovery of LV structure | Cardiac function versus untreated STZ-treated controls [11, 14]: improved cardiac function | Cardiac output with increasing pre-load, after-load constant [11, 14]: restored to Sham values | Trientine treated STZ-treated hearts still functioning when 50% of untreated STZ-treated hearts had failed ([11]; increasing after-load, constant pre-load): about 90% | Effect on cardiac performance of normal animals ([11]; non-STZ-treated rats, oral trientine 7 weeks): no adverse effects on cardiac performance | Blood glucose profile versus untreated comparison group ([11]; oral trientine in drinking water weeks 7-13): made no difference | heart:body weight ratio in STZ-treated animals ([11]; oral trientine weeks 7-13 versus untreated STZ): small but significant improvement

Oc1c(I)cc(Cl)c2cccnc12 [clioquinol]
Brain Aβ / amyloid deposition [5]: decrease in brain Aβ deposition

CN(N=O)C(=O)N[C@H]1C(O)O[C@H](CO)[C@@H](O)[C@@H]1O (mixture of isomers) [STZ, streptozotocin]
Daily food consumption ([12]; STZ 55 mg.kg^−1 i.v., n = 14, mean ± SEM): *58 ± 1 g | Heart rate (HR), control period prior to infusion ([12]; STZ-treated anaesthetized rats): 287±11 bpm | Heart weight/body weight [12, 15]: *2.93 ± 0.05 mg · g^−1 | Wet heart weight [12, 15]: *0.78 ± 0.02 g

NCCNCCNCCN [trientine hydrochloride]
Stability of stock solutions on storage (copper chelation efficacy) ([4]; hydrochloride): without appreciable deterioration in efficacy

NCCNCCNCCN [trientine dihydrochloride]
Effect on fecal Cu output ([1]; normal humans and those with T2DM, dihydrochloride): does not result in increased excretion of copper in the feces | Cu excretion in urine versus saline at lowest dose ([8]; 0.1 mg.kg^−1 parenteral, rats): significantly increased
